The values below come from patent publication US9617257B2, “Fused pyridine derivatives useful as c-Met tyrosine kinase inhibitors” (BETA PHARMACEUTICALS CO., LTD., priority 2012, dated 2017).

Read-outs that look alike come from different tables or passages of the source.

The test system of assay [1] is NCI-H1993 cells. Description: Cellular proliferation analysis (MTS assay), NCI-H1993. The class given is cell-based. The following applies: Homo sapiens, read-out: IC50 NCI-H1993. The procedure: (§1) Cell proliferation analysis was conducted by the MTS assay protocol. Briefly, U87-MG cells will be cultured in EMEM medium, EBC-1 cells and SNU-5 cells will be cultured in MEM medium, MKN45 cells, NCI-H1975 cells and NCI-H1993 cells will be cultured in RPMI1640 medium, A549 cells will be cultured in McCoy's 5a medium. […] All culture media will be purchased from GIBCO (USA). The cells will be harvested respectively during the logarithmic growth period and counted with hemocytometer. […] Add […] cell suspensions to 96-well plates (triplicates for each cell concentration), the final cell densities are 2×10^4 or 1×10^4 or 5×10^3 cells/well. The density of 5×10^3 cells/well will be used for our first test. The appropriate cell density will be determined and adjusted according to the results of our first test. The next day, dissolve the test article or positive drugs with DMSO or PBS as stock solution. Dispense 2 μl drug solution in 1 ml culture media. Add 200 μl drug media into 96-well plates (triplicate for each drug concentration) after discard the old media. The final concentration of drug will be 0, 0.03, 0.1, 0.3, 1, 3, 10, 30 or 100 μM. The plates will be cultured for another 7 days, then measured by means of MTS assay. Prepare MTS/PMS solution immediately prior to use, pipet 20 μl of the mixture into each well of the 96 well assay plate containing 100 μl culture media. (The final reaction volume is 120 μl). Incubate the plate for 1-4 hours at 37° C. in a humidified, 5% CO2 atmosphere. Record the absorbance at 490 nm using Victor X5 microplate spectrophotometer.
A general note: Formazan colour is commonly taken as a measure of viable cells.

The subject of assay [2] is MKN45 cells. Description: Cellular proliferation analysis (MTS assay), MKN45. The class given is cell-based. The following applies: Homo sapiens, MKN-45, 168 h, read-out: IC50 MKN45. Here is the method: as §1
Assay [3] has as its system A549 cells. Description: Cellular proliferation analysis (MTS assay), A549. The class given is cell-based. The following applies: Homo sapiens, read-out: IC50 A549. Here is the method: as §1
Assay [4] deals with NCI-H1975 cells. Briefly: Cellular proliferation analysis (MTS assay), NCI-H1975. The format is cell-based. The following applies: Homo sapiens, read-out: IC50 NCI-H1975. The procedure:
as §1

Assay [5] has as its system EBC-1 cells. Briefly: Cellular proliferation analysis (MTS assay), EBC-1. The class given is cell-based. The following applies: Homo sapiens, read-out: IC50 EBC-1. Here is the method: as §1
The test system of assay [6] is SNU-5 cells. Description: Cellular proliferation analysis (MTS assay), SNU-5. The following applies: Homo sapiens, SNU-5, 168 h, read-out: IC50 SNU5. The format is cell-based. The procedure:
as §1

Assay [7] concerns U87-MG cells. Briefly: Cellular proliferation analysis (MTS assay), U87-MG. The format is cell-based. The following applies: Homo sapiens, U-87 MG, 168 h, read-out: IC50 U87-MG. The procedure: as §1
The target of assay [8] is T1, Met (h) (Homo sapiens, UniProt P08581).
T1 construct: purchased Millipore
Briefly: Met (h) kinase assay (33P-ATP filter assay, performed by Millipore). The format is biochemical. The following applies: 0.2 μM test compound; remaining activity relative to DMSO control set to 100%; duplicate. The procedure: (specific activity approx. 500 cpm/pmol, concentration as required) and 0.2 μM test compound. The reaction is initiated by the addition of the MgATP mix. After incubation for 40 minutes at room temperature, the reaction is stopped by the addition of 3% phosphoric acid solution. 10 μL of the reaction is then spotted onto a P30 filtermat and washed three times for 5 minutes in 75 mM phosphoric acid and once in methanol prior to drying and scintillation counting. This assay is performed by Millipore. The experiment is carried out in duplicate. The value for the control sample (DMSO) was set to 100%, and the values for the compound-treated samples were expressed as activity relative to the control sample.

For assay [9], the system named is MKN45 tumors. The following applies: oral gavage, vs vehicle control. The procedure: (§2) Human non small cell lung cancer cells A549, human gastric cancer cells MKN45, and human lung squamous cell carcinoma cells EBC-1 are expanded in culture, harvested, and injected subcutaneously onto the right flank of BALB/c nude mice. Testing compound is prepared in an appropriate vehicle and is administered by oral gavage when tumors are established (6-10 days after implant). Tumor response is determined by tumor volume measurement performed twice a week during the course of treatment. Tumor volume inhibition (% growth inhibition) is calculated by comparing treated groups to vehicle control group. Body weight is taken as a general measurement of toxicity.

Assay [10] concerns A549 tumors. The following applies: oral gavage, vs vehicle control. Here is the method: as §2
The test system of assay [11] is EBC-1 tumors. The following applies: oral gavage, vs vehicle control. The procedure: as §2
Setting [12] is: 168 h, NCI-H1993 cells, 7 days, MTS.
The mark [13] stands for this setting: 168 h, NCI-H1975 cells, 7 days, MTS.
Where [14] appears, read: 168 h, EBC-1 cells, 7 days, MTS.

T1 sequence (P08581 25-1390): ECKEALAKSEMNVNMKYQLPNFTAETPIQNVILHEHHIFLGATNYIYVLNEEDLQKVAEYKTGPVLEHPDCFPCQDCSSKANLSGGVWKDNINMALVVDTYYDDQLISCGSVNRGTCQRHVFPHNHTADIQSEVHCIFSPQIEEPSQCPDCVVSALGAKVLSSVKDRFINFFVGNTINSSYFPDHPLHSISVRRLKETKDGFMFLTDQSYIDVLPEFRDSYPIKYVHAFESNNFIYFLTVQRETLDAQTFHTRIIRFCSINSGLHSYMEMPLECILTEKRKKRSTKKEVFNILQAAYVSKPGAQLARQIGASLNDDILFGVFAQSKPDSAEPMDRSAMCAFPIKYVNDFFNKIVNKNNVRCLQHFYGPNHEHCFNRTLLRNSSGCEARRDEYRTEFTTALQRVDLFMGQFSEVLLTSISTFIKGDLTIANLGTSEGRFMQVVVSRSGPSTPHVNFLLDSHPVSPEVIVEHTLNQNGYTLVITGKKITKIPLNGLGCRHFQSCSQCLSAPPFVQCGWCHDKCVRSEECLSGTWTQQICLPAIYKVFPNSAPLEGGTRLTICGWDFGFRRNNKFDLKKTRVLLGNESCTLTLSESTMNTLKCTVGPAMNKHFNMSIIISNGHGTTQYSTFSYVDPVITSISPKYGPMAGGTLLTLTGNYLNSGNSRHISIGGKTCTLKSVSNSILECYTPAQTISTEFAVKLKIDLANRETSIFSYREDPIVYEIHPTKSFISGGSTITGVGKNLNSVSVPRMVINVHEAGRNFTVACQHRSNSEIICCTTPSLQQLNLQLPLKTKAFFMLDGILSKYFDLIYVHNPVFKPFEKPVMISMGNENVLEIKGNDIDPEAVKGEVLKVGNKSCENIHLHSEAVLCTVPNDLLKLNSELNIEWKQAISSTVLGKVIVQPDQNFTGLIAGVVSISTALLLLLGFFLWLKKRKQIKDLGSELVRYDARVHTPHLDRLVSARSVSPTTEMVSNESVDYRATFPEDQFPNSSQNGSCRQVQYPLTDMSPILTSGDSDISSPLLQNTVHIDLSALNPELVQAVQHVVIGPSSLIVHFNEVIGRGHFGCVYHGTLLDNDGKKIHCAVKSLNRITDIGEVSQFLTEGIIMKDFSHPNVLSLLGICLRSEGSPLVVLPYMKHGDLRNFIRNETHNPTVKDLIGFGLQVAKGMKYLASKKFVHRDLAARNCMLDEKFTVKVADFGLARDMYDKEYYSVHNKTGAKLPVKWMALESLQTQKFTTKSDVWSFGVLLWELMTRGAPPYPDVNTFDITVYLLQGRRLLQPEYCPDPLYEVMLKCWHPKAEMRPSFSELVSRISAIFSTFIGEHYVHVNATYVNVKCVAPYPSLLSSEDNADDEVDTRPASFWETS

For `O=C(Nc1ccc(Oc2ccnc3c2OCCN3)cc1)c1cccn(-c2ccc(F)cc2)c1=O` [Example 9, N-(4-(3,4-dihydro-2H-pyrido[3,2-b][1,4]oxazin-8-yloxy)phenyl)-1-(4-fluorophenyl)-2-oxo-1,2-dihydropyridine-3-carboxamide], the IC50 in assay [1] (setting [12]) is 7.9 µM; in [2] (MKN45 cells, 7 days, MTS) it was 1.3 µM; in assay [3] (168 h, A549 cells, 7 days, MTS), 15.7 µM; in assay [4] (setting [13]), 8.3 µM; in assay [5] (setting [14]) it was 600 nM; in assay [6] (SNU5 cells, 7 days, MTS) it was 2900 nM. For the same molecule, the IC50 in [7] (U87-MG cells, 7 days, MTS) was determined as 5.5 µM. Moreover, the “Activity (control) %” value in assay [8] stood at 6%.

As for `O=C(Nc1ccc(Oc2ccnc3c2CCN3)c(F)c1)c1c[nH]cc(-c2ccc(F)cc2)c1=O` [Example 1, N-(4-(2,3-dihydro-1H-pyrrolo[2,3-b]pyridin-4-yloxy)-3-fluorophenyl)-5-(4-fluorophenyl)-4-oxo-1,4-dihydropyridine-3-carboxamide], the IC50 in assay [1] (NCI-H1993, 168 h) was determined as 0.4 µM; in [2] it was 0.4 µM; in assay [3] (A549, 168 h), 15.4 µM; in assay [4] (NCI-H1975, 168 h) it was 13 µM; in assay [5] (EBC-1, 168 h), 60 nM; in assay [6] it was 900 nM. The IC50 in [7] was found to be 3.4 µM. In addition, the “growth inhibition of MKN45 tumors” value is listed as 38.9% in assay [9] (60 mg/kg (qd x22)) and 71.9% in assay [9] (120 mg/kg (qd x22)). In addition, the results for the “growth inhibition of A549 tumors” value in [10] (60 mg/kg (qd x24)) and in assay [10] (120 mg/kg (qd x24)) were 76.6% and 96.7%, respectively. Moreover, the “growth inhibition of EBC-1 tumors” value is 56.5% in assay [11] (40 mg/kg (qd x17)) and 100% in assay [11] (80 mg/kg (qd x17)). The “Activity (control) %” value in [8] worked out at 1%.

On to `Cc1c(C(=O)Nc2ccc(Oc3ccnc4c3OCCN4)c(F)c2)c(=O)n(-c2ccccc2)n1C` [Example 20, N-(4-(3,4-dihydro-2H-pyrido[3,2-b][1,4]oxazin-8-yloxy)-3-fluorophenyl)-1,5-dimethyl-3-oxo-2-phenyl-2,3-dihydro-1H-pyrazole-4-carboxamide], for which the “Activity (control) %” value in [8] was 45%.

In the case of `O=C(Nc1ccc(Oc2ccnc3c2CCN3)c(F)c1)c1cccn(-c2ccc(F)cc2)c1=O` [Example 7, N-(4-(2,3-dihydro-1H-pyrrolo[2,3-b]pyridin-4-yloxy)-3-fluorophenyl)-1-(4-fluorophenyl)-2-oxo-1,2-dihydropyridine-3-carboxamide], the IC50 in [1] (setting [12]) was 4.6 µM; in assay [2] (MKN45 cells, 7 days, MTS) it was 6.7 µM; in assay [3] (168 h, A549 cells, 7 days, MTS), 23.3 µM; in [4] (setting [13]) it was 17.8 µM; in [5] (setting [14]), 9400 nM; in assay [6] (SNU5 cells, 7 days, MTS), 7800 nM. In assay [7] (U87-MG cells, 7 days, MTS), the IC50 is 5.1 µM. For the same molecule, in assay [8], the “Activity (control) %” value worked out at 11%.

Turning to `O=C(Nc1ccc(Oc2ccnc3c2OCCN3)c(F)c1)c1c[nH]cc(-c2ccc(F)cc2)c1=O` [Example 3, N-(4-(3,4-dihydro-2H-pyrido[3,2-b][1,4]oxazin-8-yloxy)-3-fluorophenyl)-5-(4-fluorophenyl)-4-oxo-1,4-dihydropyridine-3-carboxamide], the IC50 in [1] (NCI-H1993, 168 h) worked out at 1.5 µM; in [2], 6.2 µM; in assay [3] (A549, 168 h), 20.1 µM; in assay [4] (NCI-H1975, 168 h), 14.6 µM; in [5] (EBC-1, 168 h), 400 nM; in assay [6] it was 3100 nM. For the same molecule, in assay [7], the IC50 is 6.3 µM. Besides, the “Activity (control) %” value in [8] is reported as 6%.

Consider `O=C(Nc1ccc(Oc2ccnc3c2OCCCN3)cc1)c1c[nH]cc(-c2ccc(F)cc2)c1=O` [Example 56, 5-(4-Fluoro-phenyl)-4-oxo-1,4-dihydro-pyridine-3-carboxylic acid [4-(6,7,8,9-tetrahydro-5-oxa-1,9-diaza-benzocyclohepten-4-yloxy)-phenyl]-amide], for which the concentration for half-maximal inhibition (IC50) worked out at 0.7 µM in assay [1] (setting [12]); 1.2 µM in assay [2] (MKN45 cells, 7 days, MTS); 18.1 µM in [3] (168 h, A549 cells, 7 days, MTS); 14.3 µM in [4] (setting [13]); 100 nM in assay [5] (setting [14]); 1700 nM in assay [6] (SNU5 cells, 7 days, MTS). Besides, in [7] (U87-MG cells, 7 days, MTS), the IC50 stood at 4.7 µM. Moreover, the “Activity (control) %” value in assay [8] worked out at 2%.

For the molecule `O=C(Nc1ccc(F)cc1)C1(C(=O)Nc2ccc(Oc3ccnc4c3CCN4)c(F)c2)CC1` [Example 12], the IC50 was found to be 9.2 µM in assay [1] (setting [12]); 11.5 µM in assay [2] (MKN45 cells, 7 days, MTS); 20.6 µM in assay [3] (168 h, A549 cells, 7 days, MTS); 23.2 µM in [4] (setting [13]); 11100 nM in assay [5] (setting [14]); 9300 nM in assay [6] (SNU5 cells, 7 days, MTS). In addition, the IC50 in assay [7] (U87-MG cells, 7 days, MTS) was found to be 3.8 µM. Besides, the “Activity (control) %” value in assay [8] was 15%.

Regarding `Cc1c(C(=O)Nc2ccc(Oc3ccnc4c3CCN4)c(F)c2)c(=O)n(-c2ccccc2)n1C` [Example 19, N-(4-(2,3-dihydro-1H-pyrrolo[2,3-b]pyridin-4-yloxy)-3-fluorophenyl)-1,5-dimethyl-3-oxo-2-phenyl-2,3-dihydro-1H-pyrazole-4-carboxamide], in assay [8], the “Activity (control) %” value was 51%.

What is called IC50 is the concentration that inhibits the measured activity by half.
